Measurements taken from patent publication US10421761B2, “Compounds for kinase modulation, and indications therefor” (Plexxikon Inc., priority 2013, dated 2019).
Like-named read-outs stand apart in the source and are kept apart here.

What was measured:
[1] = test system: A375 (BRAF V600E) cell line; experiment: A375 P-ERK inhibition assay (AlphaScreen); format: cell-based, human; settings: Homo sapiens, A-375; A375_P-ERK
How it was run: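 Phospho-ERK1/2 (Thr202/Tyr204) detected in lysates by AlphaScreen proximity signal, pairing a total-ERK antibody with a phospho-specific antibody. Before lysis, A375 cells received compound as an 8-point titration for one hour at 37° C.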

[2] = test system: IPC-298 (NRAS Q61L) cell line; experiment: IPC-298 P-ERK cell activation assay (AlphaScreen); format: cell-based, human; settings: Homo sapiens, P-ERK cell activation, IPC-298, read-out: Cell activity (EC50 μM) IPC-298_P-ERK
How it was run: (§1)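 Phospho-ERK1/2 (Thr202/Tyr204) in lysates quantified via AlphaScreen bead proximity, after one-hour, 37° C. exposure of cells to eight compound concentrations. Lines: IPC-298 human melanoma with activated NRAS; B9 mouse squamous carcinoma with activated HRAS.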

[3] = test system: B9 (HRAS Q61L) cell line; experiment: B9 P-ERK cell activation assay (AlphaScreen); format: cell-based, mouse; settings: Mus musculus, P-ERK cell activation, B9, read-out: Cell activity (EC50 μM) B9_pERK
How it was run: as §1

[4] = molecular target: T1, BRAF V600E (Homo sapiens, UniProt P15056, V600E); experiment: BRAF V600E biochemical kinase activity assay (AlphaScreen, biotin-MEK1 substrate); settings: BRAF V600E biochemical inhibitory activity
T1 construct: purchased Upstate Biotechnology
T1 sequence (P15056 whole entry V600E): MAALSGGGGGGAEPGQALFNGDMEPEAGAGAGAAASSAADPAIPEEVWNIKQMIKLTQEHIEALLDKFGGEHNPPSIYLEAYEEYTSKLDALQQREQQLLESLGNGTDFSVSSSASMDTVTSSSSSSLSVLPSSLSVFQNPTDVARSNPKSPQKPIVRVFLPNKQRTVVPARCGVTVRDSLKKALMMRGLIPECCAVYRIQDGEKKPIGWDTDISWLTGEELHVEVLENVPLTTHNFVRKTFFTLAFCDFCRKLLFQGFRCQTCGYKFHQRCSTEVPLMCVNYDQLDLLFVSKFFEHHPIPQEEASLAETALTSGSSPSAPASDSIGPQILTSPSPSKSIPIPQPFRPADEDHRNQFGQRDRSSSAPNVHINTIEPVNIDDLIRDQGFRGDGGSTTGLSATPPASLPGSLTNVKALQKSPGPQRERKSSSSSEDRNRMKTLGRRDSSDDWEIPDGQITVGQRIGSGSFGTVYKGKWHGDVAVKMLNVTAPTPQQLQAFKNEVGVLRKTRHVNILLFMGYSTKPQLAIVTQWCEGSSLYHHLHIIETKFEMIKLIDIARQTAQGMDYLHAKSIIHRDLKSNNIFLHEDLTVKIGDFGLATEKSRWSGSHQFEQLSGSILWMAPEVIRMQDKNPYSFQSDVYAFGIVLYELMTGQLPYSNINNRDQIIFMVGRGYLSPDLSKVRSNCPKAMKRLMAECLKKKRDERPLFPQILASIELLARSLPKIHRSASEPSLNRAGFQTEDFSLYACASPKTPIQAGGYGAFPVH

| Structure (SMILES) | IC50 [1] [µM] | EC50 ([2]; numeric bounds) [µM] | EC50 ([3]; numeric bounds) [µM] | IC50 [4] [µM] | EC50 ([2]; class symbols) [µM] | EC50 ([3]; class symbols) [µM] |
| --- | --- | --- | --- | --- | --- | --- |
| CCN(C)S(=O)(=O)Nc1cccc(C(=O)c2c[nH]c3ncnc(NC4CC4)c23)c1F [P-2063, 4-(cyclopropylamino)-5-[3-[[ethyl(methyl)sulfamoyl]amino]-2-fluoro-benzoyl]-7H-pyrrolo[2,3-d]pyrimidine] | 0.0001 to 1 | > 10 | > 10 | 0.0001 to 1 |  |  |
| CCN(C)S(=O)(=O)Nc1cccc(C(=O)c2c[nH]c3ncnc(NCC(C)(C)O)c23)c1F [P-2069, 5-[3-[[ethyl(methyl)sulfamoyl]amino]-2-fluoro-benzoyl]-4-[(2-hydroxy-2-methyl-propyl)amino]-7H-pyrrolo[2,3-d]pyrimidine] | 0.0001 to 1 | > 10 | > 10 | 0.0001 to 1 |  |  |
| O=C(O)CNc1ncnc2[nH]cc(C(=O)c3cccc(NS(=O)(=O)N4CCCC4)c3F)c12 [P-2109, 2-[[5-[2-fluoro-3-(pyrrolidin-1-ylsulfonylamino)benzoyl]-7H-pyrrolo[2,3-d]pyrimidin-4-yl]amino]acetic acid] | 1 to 10 | > 10 | > 10 | 0.0001 to 1 |  |  |
| CCN(CC)S(=O)(=O)Nc1ccc(F)c(C(=O)c2c[nH]c3nccc(OC)c23)c1F [Compound P-2004, 3-[3-(diethylsulfamoylamino)-2,6-difluoro-benzoyl]-4-methoxy-1H-pyrrolo[2,3-b]pyridine] | > 10 | > 10 | > 10 | 1 to 10 |  |  |
| CC(C)(C)c1nc(-c2cccc(NS(=O)(=O)N3CCCC3)c2F)c(-c2ncnc3[nH]ccc23)s1 [P-2122, N-[3-[2-tert-butyl-5-(7H-pyrrolo[2,3-d]pyrimidin-4-yl)thiazol-4-yl]-2-fluoro-phenyl]pyrrolidine-1-sulfonamide] | 0.0001 to 1 | > 10 | > 10 | 0.0001 to 1 |  |  |
| O=C(c1cccc(NS(=O)(=O)N2CCCC2)c1F)c1c[nH]c2ncnc(NCC(O)CO)c12 (stereo not shown) [P-2096, N-[3-[4-(2,3-dihydroxypropylamino)-7H-pyrrolo[2,3-d]pyrimidine-5-carbonyl]-2-fluoro-phenyl]pyrrolidine-1-sulfonamide] | > 10 | > 10 | > 10 | 0.0001 to 1 |  |  |
| CC(C)Nc1ncnc2[nH]cc(C(=O)c3c(F)ccc(NS(=O)(=O)N4CCOCC4)c3F)c12 [P-2044, N-[2,4-difluoro-3-[4-(isopropylamino)-7H-pyrrolo[2,3-d]pyrimidine-5-carbonyl]phenyl]morpholine-4-sulfonamide] | 0.0001 to 1 | > 10 | > 10 | 0.0001 to 1 |  |  |
| CC(C)(C)c1nc(-c2cccc(NS(=O)(=O)N3CC[C@H](F)C3)c2F)c(-c2ccnc(N)n2)s1 [P-2130, (3S)-N-[3-[5-(2-aminopyrimidin-4-yl)-2-tert-butyl-thiazol-4-yl]-2-fluoro-phenyl]-3-fluoro-pyrrolidine-1-sulfonamide] | 0.0001 to 1 |  |  | 0.0001 to 1 | 0.0001 to 1 | 0.0001 to 1 |
| CCN(C)S(=O)(=O)Nc1ccc(F)c(C(=O)c2c[nH]c3ncnc(N[C@H](C)C4CC4)c23)c1F [P-2118, 4-[[(1R)-1-cyclopropylethyl]amino]-5-[3-[[ethyl(methyl)sulfamoyl]amino]-2,6-difluoro-benzoyl]-7H-pyrrolo[2,3-d]pyrimidine] | 0.0001 to 1 | > 10 | > 10 | 0.0001 to 1 |  |  |
| O=C(c1c(F)ccc(NS(=O)(=O)C2CCC2)c1F)c1c[nH]c2nccc(Cl)c12 [Compound P-2008, N-[3-(4-chloro-1H-pyrrolo[2,3-b]pyridine-3-carbonyl)-2,4-difluoro-phenyl]cyclobutanesulfonamide] | 0.0001 to 1 | > 10 | > 10 | 0.0001 to 1 |  |  |
| N#Cc1ccnc2[nH]cc(C(=O)c3c(F)ccc(NS(=O)(=O)N4CCCC4)c3F)c12 [P-2019, N-[3-(4-cyano-1H-pyrrolo[2,3-b]pyridine-3-carbonyl)-2,4-difluoro-phenyl]pyrrolidine-1-sulfonamide] | 0.0001 to 1 | > 10 | > 10 | 0.0001 to 1 |  |  |
| CC(C)Nc1ncnc2[nH]cc(C(=O)c3c(F)ccc(NS(=O)(=O)N4CCCCC4)c3F)c12 [P-2038, N-[2,4-difluoro-3-[4-(isopropylamino)-7H-pyrrolo[2,3-d]pyrimidine-5-carbonyl]phenyl]piperidine-1-sulfonamide] | 0.0001 to 1 | > 10 | > 10 | 0.0001 to 1 |  |  |
| O=C(c1cccc(NS(=O)(=O)N2CCCC2)c1F)c1c[nH]c2ncncc12 [P-2032, N-[2-fluoro-3-(7H-pyrrolo[2,3-d]pyrimidine-5-carbonyl)phenyl]pyrrolidine-1-sulfonamide] | 0.0001 to 1 | > 10 | > 10 | 0.0001 to 1 |  |  |
| O=C(c1cccc(NS(=O)(=O)N2CCCC2)c1F)c1c[nH]c2ncnc(NC3CCC3)c12 [P-2081, N-[3-[4-(cyclobutylamino)-7H-pyrrolo[2,3-d]pyrimidine-5-carbonyl]-2-fluoro-phenyl]pyrrolidine-1-sulfonamide] | 0.0001 to 1 | > 10 | > 10 | 0.0001 to 1 |  |  |
| CC(C)(C)c1nc(-c2cccc(NS(=O)(=O)N3CC[C@@H](F)C3)c2F)c(-c2ccnc(N)n2)s1 [P-2129, (3R)-N-[3-[5-(2-aminopyrimidin-4-yl)-2-tert-butyl-thiazol-4-yl]-2-fluoro-phenyl]-3-fluoro-pyrrolidine-1-sulfonamide] | 0.0001 to 1 |  |  | 0.0001 to 1 | 0.0001 to 1 | 0.0001 to 1 |
| CCN(C)S(=O)(=O)Nc1ccc(F)c(C(=O)c2c[nH]c3ncnc(NCCCOC)c23)c1F [P-2116, 5-[3-[[ethyl(methyl)sulfamoyl]amino]-2,6-difluoro-benzoyl]-4-(3-methoxypropylamino)-7H-pyrrolo[2,3-d]pyrimidine] | 0.0001 to 1 | > 10 | > 10 | 0.0001 to 1 |  |  |

Continued, values first:

| IC50 [1] [µM] | EC50 ([2]; numeric bounds) [µM] | EC50 ([3]; numeric bounds) [µM] | IC50 [4] [µM] | EC50 ([2]; class symbols) [µM] | EC50 ([3]; class symbols) [µM] | Structure (SMILES) |
| --- | --- | --- | --- | --- | --- | --- |
| 0.0001 to 1 | > 10 | > 10 | 0.0001 to 1 |  |  | O=C(c1c(F)ccc(NS(=O)(=O)C2CCCCC2)c1F)c1c[nH]c2nccc(Cl)c12 [P-2014, N-[3-(4-chloro-1H-pyrrolo[2,3-b]pyridine-3-carbonyl)-2,4-difluoro-phenyl]cyclohexanesulfonamide] |
| 0.0001 to 1 | > 10 | > 10 | 0.0001 to 1 |  |  | CCN(CC)S(=O)(=O)Nc1cc(Cl)cc(-c2cn(C(C)C)nc2-c2ccnc(NC[C@H](C)NC(=O)OC)n2)c1F [P-2165, methyl N-[(1S)-2-[[4-[4-[5-chloro-3-(diethylsulfamoylamino)-2-fluoro-phenyl]-1-isopropyl-pyrazol-3-yl]pyrimidin-2-yl]amino]-1-methyl-ethyl]carbamate] |
| 0.0001 to 1 |  |  | 0.0001 to 1 | 0.0001 to 1 | 0.0001 to 1 | COC(=O)N[C@@H](C)CNc1nccc(-c2nn(C(C)C)cc2-c2cc(Cl)cc(NS(=O)(=O)C3CCC3)c2F)n1 [P-2169, methyl N-[(1S)-2-[[4-[4-[5-chloro-3-(cyclobutylsulfonylamino)-2-fluoro-phenyl]-1-isopropyl-pyrazol-3-yl]pyrimidin-2-yl]amino]-1-methyl-ethyl]carbamate] |
| > 10 | > 10 | > 10 | 1 to 10 |  |  | O=C(c1c(F)ccc(NS(=O)(=O)N2CCOCC2)c1F)c1c[nH]c2ncncc12 [P-2031, N-[2,4-difluoro-3-(7H-pyrrolo[2,3-d]pyrimidine-5-carbonyl)phenyl]morpholine-4-sulfonamide] |
| 0.0001 to 1 | > 10 | > 10 | 1 to 10 |  |  | CCN(C)S(=O)(=O)Nc1cccc(-c2nc(C(C)(C)C)sc2-c2ccnc(Cl)n2)c1F [P-2085, 2-tert-butyl-5-(2-chloropyrimidin-4-yl)-4-[3-[[ethyl(methyl)sulfamoyl]amino]-2-fluoro-phenyl]thiazole] |
| 1 to 10 | > 10 | > 10 | 0.0001 to 1 |  |  | CC(=O)Nc1ccc(NC(=O)c2c(F)ccc(NS(=O)(=O)N(C)C)c2F)cn1 [P-2034, N-(6-acetamido-3-pyridyl)-3-(dimethylsulfamoylamino)-2,6-difluoro-benzamide] |
| 0.0001 to 1 | > 10 | > 10 | 0.0001 to 1 |  |  | O=C(c1cccc(NS(=O)(=O)N2CCCC2)c1F)c1c[nH]c2ncnc(NC3CC3)c12 [P-2070, N-[3-[4-(cyclopropylamino)-7H-pyrrolo[2,3-d]pyrimidine-5-carbonyl]-2-fluoro-phenyl]pyrrolidine-1-sulfonamide] |
| 0.0001 to 1 | > 10 | > 10 | 0.0001 to 1 |  |  | CC(C)Nc1ncnc2[nH]cc(C(=O)c3c(F)ccc(NS(=O)(=O)C4CCCC4)c3F)c12 [P-2040, N-[2,4-difluoro-3-[4-(isopropylamino)-7H-pyrrolo[2,3-d]pyrimidine-5-carbonyl]phenyl]cyclopentanesulfonamide] |
| 0.0001 to 1 | > 1 | > 1 | 0.0001 to 1 |  |  | CN(C)S(=O)(=O)Nc1cccc(-c2nc(C(C)(C)C)sc2-c2ccnc(N)n2)c1F [P-2093, 5-(2-aminopyrimidin-4-yl)-2-tert-butyl-4-[3-(dimethylsulfamoylamino)-2-fluoro-phenyl]thiazole] |
